From patent US20050095196A1, “Method for using potassium channel agonists for delivering a medicant to an abnormal brain region and/or a malignant tumor” (priority 2003, published 2005)
In brackets after ≈: the same amount, converted by molar mass. Entries after “also recorded” stand apart in the source; their conditions may differ. Counter-ions that a name gives are not always drawn.

Tests used:
[1] = tested on: blood-tumor barrier of RG2 glioma tissue; experiment: Unidirectional transfer constant Ki for [14C]AIB across the blood-tumor barrier, quantitative autoradiography after intracarotid infusion; type: in vivo, Wistar rats; conditions: for unidirectional transport constant Ki for [14C]α-aminoisobutyric acid (AIB) across the blood-tumor barrier: RG2 glioma-bearing Wistar rats, intracarotid 7.5 μg kg^−1 min^−1 for 15 minutes
Text: Malignant Cell Line and Tumor Implantation. A rat glioma cell line, RG2, was used for implantation of experimental brain tumors in Wistar rats. The techniques for RG2 cell propagation and maintenance in tissue culture have been described (Sugita, M. and Black, K. L., Cyclic GMP-specific phosphodiesterase inhibition and intracarotid bradykinin infusion enhances permeability into brain tumors, Cancer Res. 58(5):914-20 [1998]; Inamura et al. [1994]; Nakano, S. et al., Increased brain tumor microvessel permeability after intracarotid bradykinin infusion is mediated by nitric oxide, Cancer Res. 56(17):4027-31 [1996]). Briefly, RG2 cells derived from a rat glioma are kept frozen until use, then are thawed and maintained in a monolayer culture in F12 medium with 10% calf serum.
The Wistar rats (approximately 140-160 g body weight) were anesthetized with intra-peritoneal ketarnine (50 mg/kg), and glial cells (1×10^5) were implanted into the right hemisphere, but not the contralateral hemisphere, by intracerebral injection suspended in 5 μL F12 medium,(1-2% methylcellulose) by.a Hamilton syringe. The implantation coordinates were 3-mm lateral to the bregrna and 4.5 mm deep to the dural surface.
Intracarotid Infusion of Potassium Channel Activators. Seven days after implantation of RG2 cells, the rats were anesthetized as described above and prepared for permeability studies. Animals were infused with either NS-1619 (a selective large conductance Ca^2+- activated K^+ channel activator; […]; 5% (v/v) ethanol. Ethanol (25% [v/v]) was used to dissolve. the potassium channel agonists before.dilution in PBS. For blood volume studies, 5 and 14 minutes after the start of the intracarotid infusion of potassium channel agonist compounds, [^14C] Dextran (100 μCi/kg; Dupont-New England Nuclear Co., Boston, Mass.) was injected as an intravenous bolus and maintained for 1 minute and 10 minutes to obtain two different time points. For regional permeability studies, 5 minutes after the start of the intracarotid infusion of vasoactive compounds, 100 μCi/kg of [^14C]α-aminoisobutyric acid (Dupont-New England Nuclear Colo., Boston, Mass.) was injected as an intravenous bolus. A peristaltic withdrawal pump was used to withdraw femoral arterial blood at a constant rate of 0.083 mL/min immediately after the injection of the tracer to determine serum radioactivity. Fifteen minutes after the intracarotid infusion, rat decapitated and the brain rapidly removed and frozen for quantitative autoradiography.
Unidirectional Transport Constant (Ki). The unidirectional transfer constant Ki for [^14C]α-aminoisobutyric acid was measured in normal tissue and tumor tissue as an indicator of permeability across the blood-tumor and blood-brain barriers. Quantitative autbradiography was. used to obtain Ki values (μL g^−1min^−1). The initial rate for blood-to-brain transfer was calculated using a previously described equation. (Ohno, K, et al., Lower limits of cerebrovascular permeability to nonelectrolytes in the conscious rat, Am. J. Physiol. 235(3):H299-307, [1978]; Inamura, T., et al., Bradykinin selectively opens blood-tumor barrier in experimental brain rumors, J. Cereb. Flow Metab. 14(5):862-70 [1994]). Quantitative data were analyzed using, two group t-test and two-group Fisher's-exact test of equal proportions or equal means (equal numbers) at 90% power requires a minimum of 6 animals in each group to achieve statistical significance. Multiple treatment groups were compared with control group by ANOVA and P values determined by post-hoc Bonferroni test.
Dose-dependence studies. NS-1619 was dissolved in 25% ethanol and diluted with PBS to obtain various concentrations for infusion. […]

brain tumor capillaries = conditions: intracarotid infusion, cited from earlier work
[2] = cited from earlier work
[3] = Arterial blood pressure monitored during intracarotid infusion; type: in vivo; conditions: rats; higher doses (100 and 110 μg/kg/min)
Method: Dose-dependence studies. NS-1619 was dissolved in 25% ethanol and diluted with PBS to obtain various concentrations for infusion. NS-1619 was administered by intracarotid infusion (dose rates: 0, 13, 26.5, 53, 80, 100 and 110 μg kg^−1 min^−1; all at 53.3. μL/min) to RG2 glioma-bearing rats to determine a dose that produces increased permeability (Ki) of (^14C]-AIB, which was administered intravenously. Ki determined as described above. Physiological parameters were monitored during the experiments.

Molecule: IBTX: specific KCa channel inhibitor, iberiotoxin (QFTDVDCSVSKECWSVCKDLFGVDRGKCMGKKCRCYQ; Iberiotoxin; UniProt P24663 1-37, looked up)
- brain-tumor barrier permeability of abnormal capillaries, IBTX alone ([1]; IBTX 2.3 μg kg^−1 min^−1, 15 minutes, n=3): did not affect
- effect of IBTX co-infusion on NS-1619-induced increase of permeability (Ki) ([1]; IBTX 2.3 μg kg^−1 min^−1 with NS-1619 26.5 μg kg^−1 min^−1, n=3, P<0.001 vs NS-1619-treated group): decreased NS-1619-induced increase of permeability

Molecule: CCCCC/C=C\C\C=C/C=C/C=C/[C@@H](SC[C@H](NC(=O)CC[C@H](N)C(=O)O)C(=O)NCC(=O)O)[C@@H](O)CCCC(=O)O [LTC4, leukotriene C4]
- permeability in normal brain capillaries (brain tumor capillaries): without affecting the permeability
- permeability in brain tumor capillaries (brain tumor capillaries; effect limited to small molecules): selectively increases the permeability

Molecule: Nc1cc(N2CCCCC2)nc(N)[n+]1OS(=O)(=O)[O-] [minoxidil sulfate]
- unidirectional transport constant Ki for [14C]α-aminoisobutyric acid (AIB) across the blood-tumor barrier [1]: significantly increased
- solubility in water [2]: not easily dissolved in water

Molecule: CC1=NS(=O)(=O)c2cc(Cl)ccc2N1 [diazoxide]
- solubility in water [2]: not easily dissolved in water

Molecule: CC(N/C(=N\C#N)Nc1ccncc1)C(C)(C)C (racemic) [pinacidil, (±)-N-cyano-N′-4-pyridinyl-N″-(1,2,2-trimethylpropyl)-guanidine]
- solubility in ethanol ([2]; ethanol): 14 mg/mL (≈ 57.1 mM)
- solubility in water [2]: insoluble in water; also recorded: not easily dissolved in water

Molecule: O=c1[nH]c2cc(C(F)(F)F)ccc2n1-c1cc(C(F)(F)F)ccc1O [NS-1619, 1,3-dihydro-1-[2-hydroxy-5-(trifluoromethyl)phenyl]-5-(trifluoromethyl)-2H-benzimidazol-2-one]
- Ki for [14C]AIB in RG2 tumor, NS-1619 26.5 μg kg^−1 min^−1 vs PBS with or without 5% ethanol ([1]; 15 minutes, n=8, P<0.001): Increase of Ki
- unidirectional transport constant Ki for [14C]α-aminoisobutyric acid (AIB) across the blood-tumor barrier [1]: significantly increased
- dose-response of Ki for [14C]AIB in RG2 glioma capillaries ([1]; intracarotid dose rates 0, 13, 26.5, 53, 80, 100 and 110 μg kg^−1 min^−1): increasing the dose of NS-1619 results in an increase
- arterial blood pressure [3]: a significant drop in the arterial blood pressure
- solubility in water [2]: not easily dissolved in water
